Test results published in PMC7602804 (Nutrients, 2020).

Columns and labels:
Caco-2 monolayers = test: Apical to basolateral transport of milk peptides across Caco-2 monolayers (LC-MS/MS of basolateral medium); type: in vitro ADME, human; conditions: A-B, HBSS + 10 mM HEPES, 2.5 h; for Peptide identified in the basolateral chamber of Caco-2 monolayers (transported): Caco-2, 3 weeks on PET inserts 0.4 μm, TEER above 400 Ω cm^2, mix of 192 purified milk peptides 0.1 mg/mL apical, LC-MS/MS of basolateral medium, identified in two out of three experiments; for Peptides identified in the basolateral chamber of Caco-2 monolayers after synthetic PIGSENSEKTTMPLW was added apically: synthetic PIGSENSEKTTMPLW 2 µg/mL apical, LC-MS/MS
Experimental: The human colorectal adenocarcinoma cell line, Caco-2, was obtained from DSMZ (Braunschweig, Germany). The cells were grown to 50–60% confluence in Dulbecco’s Modified Eagle Medium (DMEM) Glutamax cell culture medium, supplemented with 10% heat-inactivated fetal bovine serum, 100 units/mL of penicillin and 100 μg/mL of streptomycin (all from Invitrogen, Carlsbad, CA, USA) in a humidified 5% CO2/95% air atmosphere at 37 °C. The cells used in the experiments were between passages 30 and 40.
The Caco-2 cells used for transport studies were seeded in polyethylene terephthalate culture inserts, with a pore size of 0.4 μm and a growth area of 0.33 cm^2 at a density of approximately 25,000 cells/insert. The Caco-2 cells were grown for three weeks on the porous membrane before they were used for transepithelial transport. The integrity of the monolayers was confirmed by measuring the TEER using a Millicell ERS-2 volt ohmmeter. Only Caco-2 monolayers with TEER values above 400 Ω cm^2 were used for the transport analysis.
(§1) Following the TEER value measurement, the Caco-2 and PBEC monolayers were gently washed twice with phosphate-buffered saline, and the transport medium (Hanks’ Balanced Salt solution supplemented with 10 mM of HEPES) was added to the apical and basolateral compartments. The inserts were incubated for 15 min or 2.5 h with the purified milk peptides (0.1 mg/mL) or the synthetic PIGSENSEKTTMPLW peptide (2 µg/mL), after which medium from the apical and basolateral compartments were collected for liquid chromatography tandem mass spectrometry (LC-MS/MS) analysis. Inserts incubated with a medium without peptides served as the control in the transport experiments. Membrane integrity was validated by addition of D-[1-^14C]-Mannitol (3.5 µM, 56.8 mCi/mmol) (Perkin Elmer, Waltham, MA, USA) to the upper chamber of the culture inserts with or without milk peptides for 2.5 h. The passive permeability experiments were performed on four or five individual culture inserts. Basolateral samples were mixed with Ultima Gold liquid scintillation fluid (Perkin Elmer) and counted in a Tri-Carb 2810 TR scintillation counter (Perkin Elmer). The apparent permeability coefficient (Papp, cm/s) was determined as Papp = (dQ/dt)/(AC0) where dQ/dt is the steady state flux (cpm/s), A is the surface area of the cell culture insert membrane and C0 is the initial concentration in the apical compartment (cpm/mL).
LC-MS/MS analysis was performed on a TripleTOF 6600 mass spectrometer equipped with an Exigent nanoLC 415 system (AB Sciex, Les Ulis, France). All samples were micro-purified using 3 M Empore C18 discs packed in pipette tips. The lyophilized samples were dissolved in 0.1% formic acid, injected on a trap column (2 cm × 100 µm inner diameter) and separated on an analytical column packed in-house in a pulled emitter (15 cm × 75 µm inner diameter). All columns were packed with ReproSil-Pur C18-AQ 3 µm resin (courtesy of Dr. Marisch, Ammerbuch-Entringen, Germany). Peptides were eluted directly into the mass spectrometer with a linear gradient from 5 to 35% solvent B (0.1% formic acid in acetonitrile) for 20 min with a flowrate of 250 nL/min, followed after 10 min with 100% solvent B. Data files were converted to Mascot Generic Format using the Raw Converter (version 1.1.0.18) (http://fields.scripps.edu/rawconv/) or the AB Sciex MS Data Converter beta 1.1 (AB Sciex, Les Ulis, France). The generated peak lists were searched against the Bos taurus proteome (UniProt database, https://www.uniprot.org)) using an in-house Mascot search engine (Matrix Science, London, UK). The searches were made without specifying a protease and with oxidation (Met) and phosphorylation (ST) as variable modifications. Peptide tolerance was set to 10 ppm and MS/MS tolerance was set to 0.2 Da. […]

[1] = tested on: porcine brain endothelial cell (PBEC) monolayers; test: Apical to basolateral transport of milk peptides across porcine brain endothelial cell (PBEC) monolayers, blood-brain barrier model; type: in vitro ADME; conditions: A-B, HBSS + 10 mM HEPES, 2.5 h, LC-MS/MS; for Peptide identified in the basal compartment (brain side) of the PBEC BBB model (transported): primary PBEC on polyester inserts 0.4 μm, astrocyte conditioned medium, TEER higher than 800 Ω cm^2, mix of 192 milk peptides 0.1 mg/mL apical, five independent studies, αS1 peptide 'or' its truncated peptides stated collectively; for Peptides identified in the basolateral chamber of PBEC monolayers after synthetic PIGSENSEKTTMPLW was added apically: synthetic PIGSENSEKTTMPLW 2 µg/mL apical
Experimental: Capillaries were isolated from the brain cortices of domestic pigs 5–6 months old as previously described. PBECs were cultured by plating the capillaries in T75 flasks coated with collagen IV (500 µg/mL) and fibronectin (100 µg/mL) in DMEM-F12 medium, supplemented with 10% plasma-derived serum (First Link, Wolverhampton, UK), heparin (15 U), 100 units/mL of penicillin and 100 µg/mL of streptomycin (PBEC growth medium), and cultured in an incubator with humidified 5% CO2/95% air at 37 °C. Puromycin (4 µg/mL) was added to the growth medium for the first three days to obtain a pure culture of PBECs.
Astrocyte conditioned medium was collected every third day from primary rat astrocytes, sterile filtered and frozen until use. Isolation of primary rat astrocytes and preparation of astrocyte conditioned media were carried out as described in [20].
PBECs were grown until 70–80% confluency as described above and then passaged onto polyester culture inserts with a pore size of 0.4 μm and a growth area of 1.12 cm^2 (Costar, Corning, NY, USA) at a density of 1.1 × 10^5 cells/cm^2 in the PBEC growth medium. In the basolateral chamber, the medium consisted of 1 mL of PBEC growth medium and 0.5 mL of astrocyte conditioned medium. The medium was supplemented with differentiation factors: 550 nM of hydrocortisone, 250 μM of 8-(4-chlorophenylthio)adenosine-3′,5′-cyclic monophosphate (cAMP) and 17.5 μM of RO-201724 two days after seeding. The next day, the integrity of the PBEC monolayer was confirmed by measuring the TEER. Only PBEC monolayers with TEER values higher than 800 Ω cm^2 were used for the transport analysis.
as §1
LC-MS/MS analysis was performed on a TripleTOF 6600 mass spectrometer equipped with an Exigent nanoLC 415 system (AB Sciex, Les Ulis, France). All samples were micro-purified using 3 M Empore C18 discs packed in pipette tips. The lyophilized samples were dissolved in 0.1% formic acid, injected on a trap column (2 cm × 100 µm inner diameter) and separated on an analytical column packed in-house in a pulled emitter (15 cm × 75 µm inner diameter). All columns were packed with ReproSil-Pur C18-AQ 3 µm resin (courtesy of Dr. Marisch, Ammerbuch-Entringen, Germany). […]

[2] = tested on: pepsin, then trypsin, chymotrypsin and elastase; test: In vitro simulation of gastrointestinal digestion; type: in vitro ADME; conditions: 1 mg/mL, pepsin 1:100 w/w, 0.15 M NaCl pH 2.5, 60 min, 37 °C, chymotrypsin 1:100 and elastase 1:500 w/w, 50 mM ammonium bicarbonate pH 7.6, 37 °C, sampled 5, 30, 60 and 270 min, MALDI-MS (osteopontin: SDS-PAGE)
Experimental: The purified milk peptides and the synthesized PIGSENSEKTTMPLW and […] peptides were subjected to digestion, essentially as described in [5, 26] with few modifications. The peptides were dissolved in 0.15 M of NaCl with a pH of 2.5 at a concentration of 1 mg/mL and incubated with pepsin from porcine gastric mucosa in a 1:100 w/w enzyme to substrate ratio for 60 min at 37 °C. Before digestion with pancreatic proteases, the sample was lyophilized and washed twice in deionized water. Trypsin and chymotrypsin from a bovine pancreas (Worthington Biochemical Corporation, NJ, USA) (1:100 w/w) and elastase (Worthington) (1:500 w/w) were added in 50 mM of ammonium bicarbonate buffer (pH = 7.6) and the mixture was incubated for 60 min at 37 °C. In digests of the synthesized peptides, aliquots were sampled and analyzed after 5 min, 30 min, 60 min and 270 min incubation with the intestinal enzymes. Bovine milk osteopontin was purified as previously described and incubated with the digestive proteases to validate their activity. The digested milk peptides were separated by RP-HPLC on an Aeris C4 widepore column (Phenomenex, Værløse, Denmark) connected to a Shimadzu (Kyoto, Japan) HPLC system. The peptides were separated in 0.1% TFA (buffer A) and eluted with a gradient of 60% acetonitrile in 0.1% TFA (buffer B) at 40 °C. The gradient was developed over 59 min (0–5 min: 0% buffer B; 5–49 min: 0–98% buffer B; 49–59 min: 98% buffer B) at a flow rate of 0.85 mL/min. The peptides were detected by measuring the absorbance at 226 nm and analyzed by matrix-assisted laser desorption ionization time-of-flight mass spectrometry (MALDI-MS).
MALDI-MS was performed using a Bruker Autoflex III instrument (Bruker Daltonics, Bremen, Germany). The analysis was performed using a saturated solution of α-cyano-4-hydroxycinnamic acid. The instrument was operated in reflected positive ionization mode and calibrated in the mass range of 1000 to 3200 Da using a peptide calibration standard (Bruker Daltonics, Bremen, Germany). The theoretical peptide masses were calculated using the General Protein/Mass Analysis for Windows software (Lighthouse Data, Odense, Denmark).

[3] = tested on: pepsin from porcine gastric mucosa, then trypsin and chymotrypsin from a bovine pancreas and elastase; test: synthetic peptide: pepsin in 0.15 M NaCl pH 2.5 (1:100 w/w, 60 min), then trypsin, chymotrypsin (1:100 w/w) and elastase (1:500 w/w) in 50 mM ammonium bicarbonate pH 7.6; conditions: 37 °C, up to 270 min

Substance	Peptide identified in the basolateral chamber of Caco-2 monolayers (transported) (Caco-2 monolayers)	Peptide identified in the basal compartment (brain side) of the PBEC BBB model (transported) [1]	further results
AAPAGAAIQS [endogenous bovine milk peptide from the polymeric immunoglobulin receptor]	not transported across the Caco-2 monolayers	identified in the basal compartment of the BBB model	
AAPAGAAIQSR [endogenous bovine milk peptide from the polymeric immunoglobulin receptor]	not transported across the Caco-2 monolayers	identified in the basal compartment of the BBB model	
Ac-YDGRGDSVVYGLRSKSKKFRR-NH2 [reference compound]			Stability of the synthetic peptide / control in simulated gastrointestinal digestion [2]: cleaved after 5 min incubation with the proteases
EVIESPPEINTVQVTSTAV [endogenous bovine milk peptide from κ-casein]	identified in the basolateral chamber		
KNTMEHVSSSEESIISQETY [endogenous bovine milk peptide from αS2-casein]	identified in the basolateral chamber		
PIGSENSEKTT [truncated derivative of the αS1-casein peptide …]		identified in all experiments	Peptides identified in the basolateral chamber of Caco-2 monolayers after synthetic PIGSENSEKTTMPLW was added apically (Caco-2 monolayers): identified in the basolateral chamber of both monolayers; Peptides identified in the basolateral chamber of PBEC monolayers after synthetic PIGSENSEKTTMPLW was added apically [1]: identified in the basolateral chamber of both monolayers
PIGSENSEKTTMP [truncated derivative of the αS1-casein peptide …]	identified in the basolateral chamber	identified in all experiments	Peptides identified in the basolateral chamber of Caco-2 monolayers after synthetic PIGSENSEKTTMPLW was added apically (Caco-2 monolayers): identified in the basolateral chamber of both monolayers; Peptides identified in the basolateral chamber of PBEC monolayers after synthetic PIGSENSEKTTMPLW was added apically [1]: identified in the basolateral chamber of both monolayers
PVLGPVRGPFPIIV [endogenous bovine milk peptide from β-casein]	not transported across the Caco-2 monolayers	identified in the basal compartment of the BBB model	
YDGRGDSVVYGLRSKSKKFRR (N-terminally acetylated and amidated at the C terminal)			fragment found [3]: YDGRGDSVVY, 5 min
osteopontin: bovine milk osteopontin, purified, incubated with the digestive proteases to validate their activity [reference compound]			Stability of the synthetic peptide / control in simulated gastrointestinal digestion [2]: cleaved by all the proteases
